Source: patent publication US20080242661A1, “Novel compounds useful for the treatment of degenerative & inflammatory diseases” (priority 2006, published 2008)

molecular target: purified PDE1A enzyme (Homo sapiens, UniProt P54750); experiment: In vitro PDE1A assay, dose response (Biomol Cyclic Nucleotide Phosphodiesterase Assay Kit, colorimetric); assay type: biochemical; conditions: 100 μM cAMP, 45 min at 37° C., 8 points from 20 μM, duplicate
From the text: For the dose response and further screening, we used the Cyclic Nucleotide Phosphodiesterase Assay Kit from Biomol, a colorimetric, non-radioactive assay. The basis for the assay is the cleavage of cAMP by PDE1A. The 5′AMP is further cleaved into the nucleoside and phosphate by the enzyme 5′-nucleotidase (catnr KI-307). The phosphate released due to enzymatic cleavage is quantified using BIOMOL GREEN™ reagent (catnr AK-111) in a modified Malachite Green assay 1,2. A PDE1A inhibitor will result in a decrease of the signal.
For the enzymatic reaction a mix of 25 μL with purified PDE1A enzyme, 100 μM cAMP, 5′Nucleotidase and the compound is made in a clear 384-plate. The reaction buffer is Tris 20 mM pH 7.4, 4 μg/ml calmodulin, 3 mM MgCl2, 1.5 mM CaCl2, 0.2 mg/mL BSA and 0.001% Brij-35. After an incubation of 45 minutes at 37° C., the reaction is stopped by the addition of 50 μL BIOMOL GREEN™ reagent. After 30 minutes incubation at room temperature, the readout is performed on the Envision (absorption at 615 nm).
All compounds are tested in duplicate starting from 20 μM followed by a ⅓ serial dilution, 8 points (20 μM-6.67 μM-2.22 μM-740 nM-247 nM-82 nM-27 nM-9 nM) in a final concentration of 1% DMSO. As the positive dose response control compound Vardenafil is used. For the calculation of z′ and PIN values 10 μM Vardenafil is used as positive control (100% inhibition) and 1% DMSO as negative control (0% inhibition).
The following compounds have been or can be prepared according to the synthetic methods described above. For the purpose of Table 2 below, activity of each compound, which can be determined using the PDE1A assay method described in above, is expressed as follows: […]

IC50 [nM]	Compound
101 to 500	CCCc1nn(C)c2c(=O)[nH]c(N(C)Cc3ccc(-c4ccccn4)cc3)nc12 [Example 44, 1-methyl-5-(methyl(4-(pyridin-2-yl)benzyl)amino)-3-propyl-1H-pyrazolo[4,3-d]pyrimidin-7(6H)-one]
101 to 500	CCCc1nn(C)c2c(=O)[nH]c(N(C)Cc3ccc(N4CCCCC4)cc3)nc12 [Example 3, 1-methyl-5-(methyl(4-(piperidin-1-yl)benzyl)amino)-3-propyl-1H-pyrazolo[4,3-d]pyrimidin-7(6H)-one]
< 100	CN(Cc1cc(-c2ccccc2)nn1C)c1nc2c(C(C)(C)C)nn(C)c2c(=O)[nH]1 [Example 81, 3-tert-butyl-1-methyl-5-(methyl((1-methyl-3-phenyl-1H-pyrazol-5-yl)methyl)amino)-1H-pyrazolo[4,3-d]pyrimidin-7(6H)-one]
< 100	CCCc1nn(C)c2c(=O)[nH]c(NCc3cccc(-c4ccn(C)n4)c3)nc12 [Example 67]
< 100	Cc1nc(-c2cccc(CN(C)c3nc4c(C(C)(C)C)nn(C)c4c(=O)[nH]3)c2)cs1 [Example 90, 3-tert-butyl-1-methyl-5-(methyl(3-(2-methylthiazol-4-yl)benzyl)amino)-1H-pyrazolo[4,3-d]pyrimidin-7(6H)-one]
101 to 500	CCCc1nn(C)c2c(=O)[nH]c(NCc3ccc4c(c3)CCO4)nc12 [Example 62, 5-((2,3-dihydrobenzofuran-5-yl)methylamino)-1-methyl-3-propyl-1H-pyrazolo[4,3-d]pyrimidin-7(6H)-one]
< 100	CCCc1nn(C)c2c(=O)[nH]c(N(C)CCC(C)(C)C)nc12 [Example 110, 5-((3,3-dimethylbutyl)(methyl)amino)-1-methyl-3-propyl-1H-pyrazolo[4,3-d]pyrimidin-7(6H)-one]
101 to 500	CCCc1nn(C)c2c(=O)[nH]c(N(C)CC(C)CCC)nc12 (stereo not drawn) [Example 123, 1-methyl-5-(methyl(2-methylpentyl)amino)-3-propyl-1H-pyrazolo[4,3-d]pyrimidin-7(6H)-one]
< 100	CCCc1nn(C)c2c(=O)[nH]c(N(C)Cc3cc(-c4ccccc4)on3)nc12 [Example 25, 1-methyl-5-(methyl((5-phenylisoxazol-3-yl)methyl)amino)-3-propyl-1H-pyrazolo[4,3-d]pyrimidin-7(6H)-one]
101 to 500	CCCc1nn(C)c2c(=O)[nH]c(N(C)Cc3cccc(N4CCOCC4)c3)nc12 [Example 10, 1-methyl-5-(methyl(3-morpholinobenzyl)amino)-3-propyl-1H-pyrazolo[4,3-d]pyrimidin-7(6H)-one]
101 to 500	CCCc1nn(C)c2c(=O)[nH]c(N(C)Cc3cc(C)n(C)n3)nc12 [Example 14, 5-(((1,5-dimethyl-1H-pyrazol-3-yl)methyl)(methyl)amino)-1-methyl-3-propyl-1H-pyrazolo[4,3-d]pyrimidin-7(6H)-one]
< 100	CCCc1nn(C)c2c(=O)[nH]c(N(Cc3cccc(-n4cncn4)c3)CC(C)CC)nc12 (stereo not drawn) [Example 116]
< 100	CCCc1nn(C)c2c(=O)[nH]c(N(C)Cc3cc(-c4ccccc4)nn3C)nc12 [Example 38, 1-methyl-5-(methyl((1-methyl-3-phenyl-1H-pyrazol-5-yl)methyl)amino)-3-propyl-1H-pyrazolo[4,3-d]pyrimidin-7(6H)-one]
< 100	CCCc1nn(C)c2c(=O)[nH]c(N(Cc3cccc(N4CCOCC4)c3)CC(C)CC)nc12 (stereo not drawn) [Example 114, 1-methyl-5-((2-methylbutyl)(3-morpholinobenzyl)amino)-3-propyl-1H-pyrazolo[4,3-d]pyrimidin-7(6H)-one]
101 to 500	CCCc1nn(C)c2c(=O)[nH]c(N(C)Cc3ccc(-c4cncnc4)cc3)nc12 [Example 13, 1-methyl-5-(methyl(4-(pyrimidin-5-yl)benzyl)amino)-3-propyl-1H-pyrazolo[4,3-d]pyrimidin-7(6H)-one]
< 100	CCCc1nn(C)c2c(=O)[nH]c(N(Cc3ccc(F)cc3)CC(C)C)nc12 [Example 98, 5-((4-fluorobenzyl)(isobutyl)amino)-1-methyl-3-propyl-1H-pyrazolo[4,3-d]pyrimidin-7(6H)-one]
< 100	CCCc1nn(C)c2c(=O)[nH]c(N(Cc3cccc(N4CCN(C)CC4)c3)CC(C)C)nc12 [Example 102, 5-(isobutyl(3-(4-methylpiperazin-1-yl)benzyl)amino)-1-methyl-3-propyl-1H-pyrazolo[4,3-d]pyrimidin-7(6H)-one]

Second part, the molecule before the results:

Compound	IC50 [nM]
CCCc1nn(C)c2c(=O)[nH]c(NCc3cccc(N4CCCCC4)c3)nc12 [Example 11, 1-methyl-5-(3-(piperidin-1-yl)benzylamino)-3-propyl-1H-pyrazolo[4,3-d]pyrimidin-7(6H)-one]	101 to 500
CC(C)CN(Cc1cccc(-n2cncn2)c1)c1nc2c(C(C)(C)C)nn(C)c2c(=O)[nH]1 [Example 95]	< 100
CCCc1nn(C)c2c(=O)[nH]c(NCc3cccc(N4CCCC4)c3)nc12 [Example 26, 1-methyl-3-propyl-5-(3-(pyrrolidin-1-yl)benzylamino)-1H-pyrazolo[4,3-d]pyrimidin-7(6H)-one]	101 to 500
CCCC(C)CN(C)c1nc2c(C(C)(C)C)nn(C)c2c(=O)[nH]1 (stereo not drawn) [Example 115, 3-tert-butyl-1-methyl-5-(methyl(2-methylpentyl)amino)-1H-pyrazolo[4,3-d]pyrimidin-7(6H)-one]	< 100
CCCc1nn(C)c2c(=O)[nH]c(N3CCCN(Cc4c(F)cccc4Cl)CC3)nc12 [Example 1, 5-(4-(2-chloro-6-fluorobenzyl)-1,4-diazepan-1-yl)-1-methyl-3-propyl-1H-pyrazolo[4,3-d]pyrimidin-7(6H)-one]	> 500
CCCc1nn(C)c2c(=O)[nH]c(NCCc3ccc(F)cc3)nc12 [Example 87, 5-(4-fluorophenethylamino)-1-methyl-3-propyl-1H-pyrazolo[4,3-d]pyrimidin-7(6H)-one]	> 500
CCCc1nn(C)c2c(=O)[nH]c(NCc3cccc(-n4cncn4)c3)nc12 [Example 73]	101 to 500
CCCC(C)CN(Cc1cccc(-n2cccn2)c1)c1nc2c(C(C)(C)C)nn(C)c2c(=O)[nH]1 (stereo not drawn) [Example 122]	< 100
CCCc1nn(C)c2c(=O)[nH]c(N(CCC)CCC)nc12 [Example 4, 5-(dipropylamino)-1-methyl-3-propyl-1H-pyrazolo[4,3-d]pyrimidin-7(6H)-one]	< 100
CCn1nc(C(C)(C)C)c2nc(N(Cc3cccc(N4CCOCC4)c3)CC(C)C)[nH]c(=O)c21 [Example 124, 3-tert-butyl-1-ethyl-5-(isobutyl(3-morpholinobenzyl)amino)-1H-pyrazolo[4,3-d]pyrimidin-7(6H)-one]	> 500
CN(Cc1ccc(Cl)cc1)c1nc2c(C3CCCC3)nn(C)c2c(=O)[nH]1 [Example 71, 5-((4-chlorobenzyl)(methyl)amino)-3-cyclopentyl-1-methyl-1H-pyrazolo[4,3-d]pyrimidin-7(6H)-one]	< 100
CCCN(CCC)c1nc2c(C3CC3)nn(C)c2c(=O)[nH]1 [Example 125, 3-cyclopropyl-5-(dipropylamino)-1-methyl-1H-pyrazolo[4,3-d]pyrimidin-7(6H)-one]	101 to 500
CCCc1nn(C)c2c(=O)[nH]c(NCc3cccc(OCCN4CCOCC4)c3)nc12 [Example 55, 1-methyl-5-(3-(2-morpholinoethoxy)benzylamino)-3-propyl-1H-pyrazolo[4,3-d]pyrimidin-7(6H)-one]	101 to 500
CCCN(CCC)c1nc2c(C3CCCC3)nn(C)c2c(=O)[nH]1 [Example 78, 3-cyclopentyl-5-(dipropylamino)-1-methyl-1H-pyrazolo[4,3-d]pyrimidin-7(6H)-one]	< 100
CCCc1nn(C)c2c(=O)[nH]c(N3CCN(C(=O)C(c4ccccc4)c4ccccc4)CC3)nc12 [Example 59, 5-(4-(2,2-diphenylacetoyl)piperazin-1-yl)-1-methyl-3-propyl-1H-pyrazolo[4,3-d]pyrimidin-7(6H)-one]	> 500
Cn1nc(C(C)(C)C)c2nc(N(CCC(C)(C)C)Cc3cccc(N4CCOCC4)c3)[nH]c(=O)c21 [Example 103, 3-tert-butyl-5-((3,3-dimethylbutyl)(3-morpholinobenzyl)amino)-1-methyl-1H-pyrazolo[4,3-d]pyrimidin-7(6H)-one]	< 100
CCCc1nn(C)c2c(=O)[nH]c(NCc3cccc(N4CCOCC4)c3)nc12 [Example 56, 1-methyl-5-(3-morpholinobenzylamino)-3-propyl-1H-pyrazolo[4,3-d]pyrimidin-7(6H)-one]	101 to 500
CCCc1nn(C)c2c(=O)[nH]c(NCCc3ccc(Cl)cc3)nc12 [Example 79, 5-(4-chlorophenethylamino)-1-methyl-3-propyl-1H-pyrazolo[4,3-d]pyrimidin-7(6H)-one]	101 to 500
CCC(CC)CN(C)c1nc2c(C(C)(C)C)nn(C)c2c(=O)[nH]1 [Example 105, 3-tert-butyl-5-((2-ethylbutyl)(methyl)amino)-1-methyl-1H-pyrazolo[4,3-d]pyrimidin-7(6H)-one]	< 100
